Test results published in patent US20230331707A1, “PROGRAMMED CELL NECROSIS INHIBITOR, PREPARATION METHOD THEREFOR, AND USE THEREOF” (Shanghai Institute of Organic Chemistry, Chinese Academy of …, priority 2020, published 2023).
Like-named read-outs stand apart in the source and are kept apart here.

What was measured:
[1] = Liver microsomal stability test, human; assay type: in vitro ADME; settings: human liver microsomes, NADPH, 37° C.; for half-life at 1 µM: human, liver microsomes, read-out: T1/2 (min) Human
Excerpt: (§1) The adopted biological test protocol was: testing the half-life of the compound in human- or mouse-derived liver microsomes.
(§2) Liver microsomes contain many enzymes involved in drug metabolism, especially cytochrome P-450, and therefore it is one of the major tissues involved in drug metabolism in living organisms. There are some correlations between the stability of the compound in liver microsomes and the pharmacogenetic stability thereof in vivo. Therefore, the relative stability of compounds in vivo can be roughly predicted by testing the half-life of different compounds in human- or mouse-derived liver microsomes. The specific methods were as follows:
(§3) Methods: 0.75 μL of 0.5 mM samples (compounds to be tested and control verapamil), 9.38 μL of 20 mg/mL liver microsomes (Human and Mouse) were taken and added to 239.88 μL PBS (on ice), and divided into 30 μL/tube samples respectively. The samples were incubated at 37° C. in a constant temperature water bath for 5 min, and then all samples were taken out. At zero-time, control group was added with 90 μL of ice acetonitrile first, and then added with 15 μL of 3 mM NADPH solution sequentially, and incubated at 37° C. in a constant temperature water bath. The corresponding samples were taken out after 5 min, 10 min, 20 min, 30 min and 60 min, respectively, and quenched by adding 90 μL of ice acetonitrile. All samples were centrifuged at 10000 rpm for 10 min, and the supernatants were taken and placed in a liquid phase vial waiting for LC-MS analysis.

[2] = Liver microsomal stability test, mouse; assay type: in vitro ADME; settings: mouse liver microsomes, NADPH, 37° C.; for half-life at 1 µM: mouse, liver microsomes, read-out: T1/2 (min) Mouse
Excerpt: as §1, §2, §3

[3] = system: L929 cells; test: Inhibition of TNF-induced programmed necrosis of L929 cells (Cell Titer-Glo viability); assay type: cell-based, mouse
Excerpt: (§4) The adopted biological assay protocol was: the effect of compounds on programmed necroptosis of TNF-induced FADD (Fas-Associated Death Domain) deficient Jurkat cells and L929 cells.
(§5) In order to verify the inhibitory effect of the compounds of the present invention on programmed cell necrosis at the cellular level, cell types that is closely related to the RIP1 pathway, namely FADD deficient Jurkat cells (human peripheral blood leukemia T cell strain) and L929 cells, were selected. Two different stimulation methods were used: tumor necrosis factor (TNFα) was used alone, or TNFα was used in combination with mitochondria-derived cysteine aspartate activator (SMAC) SM164. Cells viability was calculated by detecting chemiluminescence values, thereby obtaining the biological activity of the compound on the inhibition of programmed cell necrosis.
(§6) Methods: FADD deficient Jurkat cells: FADD deficient Jurkat cells (human peripheral blood leukemia T cell line) were cultured in vitro. After growing to the logarithmic growth phase, the cells were collected, centrifuged at 1000 rpm for 5 min, the supernatant was discarded, and the cell concentration was adjusted to 2.5×10^5/mL. Cells were seeded into 384-well plates, 40 μl per well. 5 μL of SM164 (50 nM) diluted in cell culture medium and 5 μL of each compound were added to the corresponding wells. After pretreatment at 37° C. for 1 h, 5 μL of TNFα (50 ng/mL) diluted in cell culture medium was added to each well of the stimulation group, and 5 μL of the culture medium was added to the control group. The plate was cultured in a cell incubator (37° C., 5% CO2) for 14 h, and […] of Cell Titer-Glo solution was added to each well, then incubated for 30 min at room temperature, and intracellular ATP level was measured by detecting luminescence. The unstimulated DMSO control wells were taken as 100% cell viability. L929 cells: The L929 cells (mouse fibroblasts) were cultured in vitro, digested and diluted to 6.25×10^4/ml, and the cells were seeded into 384-well plates, 40 μl per well. The plate was placed in a cell incubator (37° C., 5% CO2) for 12 hours. 5 μL of SM164 (500 nM) diluted in cell culture medium and 5 μL of each compound were added to the corresponding wells. After pretreatment at 37° C. for 1 h, 5 μL of TNFα (500 ng/mL) diluted in cell culture medium was added to each well of the stimulation group, and 5 μL of the culture medium was added to the control group. After the plate was cultured for 14 h in a cell incubator (37° C., 5% CO2), 15 μl of Cell Titer-Glo solution was added to each well. The plate was incubated at room temperature for 30 min, and intracellular ATP level was measured by detecting luminescence. The unstimulated DMSO control wells were taken as 100% cell viability. EC50 values of the compounds were calculated using Prism Graphpad statistical software.

[4] = system: FADD−/− Jurkat cells; test: Inhibition of TNF-induced programmed necrosis of FADD deficient Jurkat cells (Cell Titer-Glo viability); assay type: cell-based
Excerpt: as §4, §5, §6

[5] = system: MEFs cells expressing RIPK1 S161E mutant; test: TSZ-induced programmed necrosis in MEFs cells expressing RIPK1 S161E mutant; assay type: cell-based, mouse
Excerpt: (§7) The adopted biological test protocol was: the effect of compounds on programmed necrosis in MEFs cells (mouse embryonic fibroblasts) with RIPK1 S161E mutation.
(§8) In order to verify the inhibitory effect of the compound of the present invention on the highly activated RIPK1 kinase at the cellular level, MEFs cells stably expressing RIPK1 S161E (simulating the activation state of RIPK1 after phosphorylation) were selected, TNFα-SM164-zVAD (Caspase inhibitor for inhibiting apoptosis) (TSZ) was used in combination to induce programmed cell necrosis, and cell viability was calculated by detecting chemiluminescence values, thereby obtaining the biological activity of the compound in inhibiting programmed necrosis.
(§9) Methods: MEFs cells replenished by RIPK1: WT-RIPK1, S161A-RIPK1 and S161E-RIPK1 were replenished in RIPK1 stable knockout cells respectively. After stable expression and being cultured to logarithmic growth phase, the cells were collected, and centrifuged at 1000 rpm for 5 min. The supernatant was discarded. Cell concentration was adjusted to 5×10^4/mL, and cells were inoculated into 384-well plates with 40 μL per well. Cell culture medium diluted SM164 (100 nM), zVAD (50 μM) and compound, each […], were added to the corresponding wells. After pretreatment at 37° C. for 1 h, 5 μL of cell culture medium diluted TNF (50 ng/mL) was added to each well in the stimulated group and 5 μL of culture medium was added to the control group. […] The unstimulated DMSO control wells (Ctrl) were taken as 100% cell viability. EC50 values of the compounds were calculated using Prism Graphpad statistical software.

[6] = system: MEFs cells expressing RIPK1 WT; test: TSZ-induced programmed necrosis in MEFs cells expressing RIPK1 WT; assay type: cell-based, mouse
Excerpt: as §7, §8, §9

[7] = Mus musculus, L929, L929 cells, stimulated with TNFα + SM164, read-out: EC50 (μM) L929 cells (mouse) TNFα + SM164
[8] = Mus musculus, L929, L929 cells, stimulated with TNFα alone, read-out: EC50 (μM) L929 cells (mouse) TNFα
[9] = Homo sapiens, Jurkat, 14 h, FADD−/− Jurkat cells, stimulated with TNFα + SM164, read-out: EC50 (μM) FADD−/− Jurkat cells (human) TNFα + SM164
[10] = Homo sapiens, Jurkat, FADD−/− Jurkat cells, stimulated with TNFα alone, read-out: EC50 (μM) FADD−/− Jurkat cells (human) TNFα
[11] = L929 cells, stimulated with TNFα + SM164, read-out: EC50 (μM) L929 cells (mouse) TNFα + SM164
[12] = L929 cells, stimulated with TNFα alone, read-out: EC50 (μM) L929 cells (mouse) TNFα
[13] = FADD−/− Jurkat cells, stimulated with TNFα + SM164, read-out: EC50 (μM) FADD−/− Jurkat cells (human) TNFα + SM164

Row | SMILES | half-life at 1 µM [1] [min] | half-life at 1 µM [2] [min] | EC50 [3, 7] [µM] | EC50 [3, 8] [µM] | EC50 [4, 9] [nM] | EC50 [4, 10] [nM] | also measured
1 | CCn1nc(C(=O)NCc2ccc(-n3cnc4cc(C(=O)NC)ccc43)cc2)cc1Cc1ccccc1 [XHJ-4-36] | 46.2 | 10.7 | > 10 | 0.0107 | 42.8 | 5.91 | 
2 | CN1CCN(CCNC(=O)c2ccc3c(c2)ncn3-c2ccc(CNC(=O)c3cnn(C)c3Cc3ccccc3)cc2)CC1 [QY-11-69B] | 43.3 | 46.2 | 0.00108 | 0.000563 | 6.33 | 0.984 | 
3 | CCn1nc(C(=O)NCc2ccc(-n3ccc4c(N)ncnc43)cc2)cc1Cc1ccccc1 [QY-9-33] | 9.6 | 11.2 | > 10 | > 10 | 1040 | 3.77 | 
4 | Nc1ncnc2c1ncn2-c1ccc(CN2CCc3cn(Cc4ccccc4)nc3C2=O)cc1 [QY-9-50] | 86.6 | 116 | 2.73 | 1.39 | 12.1 | 0.191 | 
5 | CNC(=O)c1ccc2c(c1)ncn2-c1ccc(CN2CCc3cn(Cc4ccccc4)nc3C2=O)cc1 [QY-8-7] | 46.2 | 12.2 | > 10 | 3 | 37.8 | 10.8 | 
6 | CCn1nc(C(=O)NCc2ccc(-n3cnc4c(N)ncnc43)cc2)cc1Cc1ccccc1 [QY-9-34] | 14.7 | 13.9 | > 10 | 8.36 | 3.52 | 0.416 | 
7 | CNC(=O)c1ccc2c(c1)ncn2-c1ccc(CNC(=O)c2noc(Cc3ccccc3)n2)cc1 [QY-7-14, 5-Benzyl-N-(4-(5-(methylcarbamoyl)-1H-benzo[d]imidazol-1-yl)benzyl)-1,2,4-oxadiazol-3-carboxamide] | 13.9 | 77 | 4.74 | 0.962 | 180 | 24.3 | 
8 | CNC(=O)c1ccc2c(c1)ncn2-c1ccc(CNC(=O)c2nnn(Cc3ccccc3)n2)cc1 [ZSQ-13-36] | 99 | 99 | 4.31 | 1.11 | 150 | 24 | 
9 | Cn1nc(C(=O)NCc2ccc(-n3cnc4c(N)ncnc43)cc2)cc1Cc1ccccc1 [QY-8-43, N-(4-(6-amino-9H-purin-9-yl)benzyl)-5-benzyl-1-methyl-1H-pyrazole-3-carboxamide] | 38.5 | 23.9 |  |  |  |  | EC50 [3, 11]: 0.152 µM; EC50 [3, 12]: 0.0111 µM; EC50 [4, 13]: 17.7 nM; EC50 ([4]; FADD−/− Jurkat cells, stimulated with TNFα alone, read-out: EC50 (μM) FADD−/− Jurkat cells (human) TNFα): 2.85 nM
10 | CN1C(=O)[C@@H](NC(=O)c2n[nH]c(Cc3ccccc3)n2)COc2ccccc21 [GSK2982772, reference compound] |  |  | > 10 | 2.51 | 4 |  | inhibition of programmed necrosis ([5]; 10 μM): only shows weak inhibition; inhibition of programmed necrosis (in words) ([3]; mouse-derived L929 cells): almost inactive; EC50 ([4]; Homo sapiens, Jurkat, read-out: EC50 (μM) FADD−/− Jurkat cells (human) TNFα): 0.68 nM; inhibition of programmed necrosis ([6]; 10 μM): can effectively inhibit the occurrence of programmed necrosis
11 | Nc1ncnc2c1ccn2-c1ccc(CN2CCc3cn(Cc4ccccc4)nc3C2=O)cc1 [QY-9-41] | 38.5 | 36.5 | > 10 | > 10 | 234 | 21.5 | 
12 | CN1C(=O)N[C@H](Cc2c[nH]c3c(Cl)cccc23)C1=O [Nec-1s, reference compound] |  |  |  |  | 900 | 228 | inhibition of programmed necrosis ([5]; 10 μM): does not exhibit inhibition; EC50 ([3]; Mus musculus, L929, read-out: EC50 (μM) L929 cells (mouse) TNFα): 0.443 µM; inhibition of programmed necrosis ([6]; 10 μM): can effectively inhibit the occurrence of programmed necrosis
13 | Cn1ncc(C(=O)NCc2ccc(-n3cnc4c(N)ncnc43)cc2)c1Cc1ccccc1 [QY-11-78] |  |  |  |  |  | 0.036 | T1/2 (min) Human [1]: 12.6 min; T1/2 (min) Mouse [2]: 23.9 min; EC50 [3, 11]: 0.0232 µM; EC50 [3, 12]: 0.00987 µM; EC50 [4, 13]: 0.689 nM
14 | Cn1ncc(C(=O)NCc2ccc(-n3cnc4c(N)nccc43)cc2)c1Cc1ccccc1 [QY-11-77] |  |  | 0.00063 | 0.00117 | 0.838 | 0.012 | inhibition of programmed necrosis ([5]; 600 nM): can significantly inhibit occurrence of programmed necrosis; inhibition of programmed necrosis ([6]; 600 nM): can effectively inhibit the occurrence of programmed necrosis
15 | CNC(=O)c1ccc2c(c1)ncn2-c1ccc(CNC(=O)c2cc(Cc3ccccc3)on2)cc1 [QY-6-16, 5-Benzyl-N-(4-(5-(methylcarbamoyl)-1H-benzo[d]imidazol-1-yl)benzyl) isoxazol-3-formamide] | 21.7 | 24.8 | 3.35 | 2.14 | 113 | 8.1 | 
16 | Nc1ncnc2c1ncn2-c1ccc(CNC(=O)c2cn(Cc3ccccc3)cn2)cc1 [ZSQ-21-13] | 577 | 99 |  |  | 39 | 42.7 | 
